Measurements as given in ChEMBL document CHEMBL4619768, “Limonoids from Cipadessa baccifera” (J Nat Prod, 2020).
Activity calls are given as the source filed them. The rule behind the calls is not given here.

Test system: Plasmodium falciparum
Assay: Antimalarial activity against chloroquine-resistant ring-stage Plasmodium falciparum Dd2 incubated for 72 hrs by SYBR green1 dye-based assay
Assay type: functional, organism-based
Details: for IC50: Dd2, 72 h

SMILES	IC50	Activity
C=C1[C@]2(O)CC[C@@]3(C)[C@H](c4ccoc4)CC(=O)C[C@]13O[C@H]1[C@@H](OC(=O)[C@H](C)CC)[C@H](O)C(C)(C)[C@H](CC(=O)OC)[C@]12C	16.3 µM	–
C=C1C2[C@H](O)C[C@@]3(C)[C@H](c4ccoc4)CC(=O)C[C@]13O[C@H]1[C@@H](OC(=O)[C@H](C)CC)[C@H](O)C(C)(C)[C@H](CC(=O)OC)[C@@]21C	–	inactive
COC(=O)[C@@H](O)[C@H]1C(C)(C)[C@H](OC(C)=O)C[C@@H]2O[C@]34CC(=O)O[C@@H](c5ccoc5)[C@]3(C)C[C@@H](C(=O)[C@@H]4C)[C@@]21C	–	inactive
COC(=O)[C@@H](O)[C@H]1C(C)(C)[C@H](OC(C)=O)[C@H](OC(C)=O)[C@@H]2O[C@]34CC(=O)O[C@@H](c5ccoc5)[C@]3(C)C[C@@H](C(=O)[C@@H]4C)[C@@]21C	–	inactive
C=C1[C@]2(O)CC[C@@]3(C)[C@H](c4ccoc4)CC(=O)C[C@]13O[C@H]1[C@@H](OC(=O)[C@@H](C)CC)[C@H](O)C(C)(C)[C@H](CC(=O)OC)[C@]12C	12.3 µM	–
C=C1[C@@]23CC(=O)C[C@@H](c4ccoc4)[C@]2(C)C[C@@H](OC(C)=O)[C@]1(O)[C@@]1(C)[C@@H](O3)[C@@H](OC(=O)[C@H](C)CC)[C@H](O)C(C)(C)[C@@H]1CC(=O)OC	23.1 µM	–
COC(=O)C[C@H]1C(C)(C)[C@@H](OC(C)=O)[C@H](O)[C@@H]2OC3=C(C)C4=CC(=O)O[C@@H](c5ccoc5)[C@]4(C)[C@@H](O)[C@@H]3[C@@]21C	–	inactive
C[C@@H]1CC[C@H]2[C@@H](C)C(=O)O[C@@H]3O[C@@]4(C)CC[C@@H]1[C@]32OO4 [ARTEMISININ]	0.013 µM	–
COC(=O)C[C@H]1C(C)(C)[C@@H](O)[C@H](OC(C)=O)[C@@H]2OC3=C(C)C4=CC(=O)O[C@@H](c5ccoc5)[C@]4(C)[C@@H](O)[C@@H]3[C@@]21C	–	inactive
COC(=O)[C@@H](O)[C@H]1C(C)(C)[C@H](OC(C)=O)[C@H](OC(C)=O)[C@@H]2O[C@]34CC(=O)O[C@@H](c5ccoc5)[C@]3(C)[C@@H](OC(C)=O)[C@@H](C(=O)[C@@H]4C)[C@@]21C	–	inactive
COC(=O)C[C@H]1C(C)(C)[C@@H](O)[C@H](OC(=O)C(C)C)[C@@H]2O[C@]34CC(=O)O[C@@H](c5ccoc5)[C@]3(C)C[C@@H](C(=O)[C@@H]4C)[C@@]21C	28 µM	–
COC(=O)[C@@H](O)[C@H]1C(C)(C)[C@H](OC(C)=O)C[C@@H]2OC3=C(C)C4=CC(=O)O[C@@H](c5ccoc5)[C@]4(C)[C@@H](OC(C)=O)[C@@H]3[C@@]21C	–	inactive
C=C1[C@@]23CC(=O)C[C@@H](c4ccoc4)[C@]2(C)C[C@@H](OC(C)=O)[C@]1(O)[C@@]1(C)[C@@H](O3)[C@@H](OC(=O)C(C)C)[C@H](O)C(C)(C)[C@@H]1CC(=O)OC	–	inactive
C=C1C2[C@H](O)C[C@@]3(C)[C@H](c4ccoc4)CC(=O)C[C@]13O[C@H]1[C@@H](OC(=O)[C@@H](C)CC)[C@H](O)C(C)(C)[C@H](CC(=O)OC)[C@@]21C	–	inactive
COC(=O)[C@@H](O)[C@H]1C(C)(C)[C@H](OC(C)=O)C[C@@H]2O[C@]34CC(=O)O[C@@H](c5ccoc5)[C@]3(C)[C@@H](OC(C)=O)[C@@H](C(=O)[C@@H]4C)[C@@]21C	–	inactive
COC(=O)[C@@H](O)[C@H]1C(C)(C)[C@@H](O)[C@H](OC(=O)C(C)C)[C@@H]2O[C@]34CC(=O)O[C@@H](c5ccoc5)[C@]3(C)C[C@@H](C(=O)[C@@H]4C)[C@@]21C	16.9 µM	–
C=C1[C@]2(O)CC[C@@]3(C)[C@H](c4ccoc4)CC(=O)C[C@]13O[C@H]1[C@@H](OC(=O)C(C)C)[C@H](O)C(C)(C)[C@H](CC(=O)OC)[C@]12C	20 µM	–
